Measured values reported in patent US20140287995A1, “STABLE PHARMACEUTICAL FORMULATIONS OF GROWTH FACTOR PEPTIDES” (THE UNIVERSITY OF CHICAGO, priority 2011, published 2014).
Each block holds one compound with its values, some of them ahead of it.

Experiments:
[1] = system: non-transformed African Green Monkey kidney epithelial (BSC-1) cells; assay: Mitogenic response of BSC-1 cells (cell number counted in a hemocytometer after 4 days); type: cell-based; conditions: for mitogenic activity of excipient without NX001: 20 mM histidine or 8.8% sucrose, alone or together, diluted 160-fold, FIG. 3A
Description: Various lots of unformulated NX001 can be assayed for bioactivity using the mitogenic response of BSC-1 cells as an indicator (see, for instance, U.S. Pat. No. 6,096,706). In this example, two lots of NX001 peptide (Lots PPL-WGF0501A and lot PPL WGF0801) were tested. Varying amounts of the two peptides were added to near-confluent monolayers of non-transformed African Green Monkey kidney epithelial (BSC-1) cells, and the number of cells was counted in a hemocytometer 4 days later.
Each formulation was reconstituted with 1.0 mL water, and was swirled to dissolve the contents. Each solution was then be diluted to 0.125 mg/mL with water. Aliquots of 8 μL each was added to triplicate wells of BSC-1 cells to yield final concentrations of NX001 from 0.05 to 0.4 μg/mL. The plates were incubated at 37° C. for 4 days, and then cells was counted. A third lot of NX001 (PPL-WGF0801) that is not formulated and not lyophilized was dissolved and diluted in water and was used as positive control.
To investigate whether excipients alone or in combination might modify the mitogenic activity, NX001 was added to 20 mM histidine, 8.8% sucrose or the combination and the solutions were diluted to 0.125 mg/mL. Each of the near confluent monolayers of BSC-1 cells in 5 ml DMEM containing 40 μM biotin and 0.5% calf serum received either 8 μl of water, 8 μl of an excipient, or 0.2 μg/ml of PPL-WGF0801 in a final volume of 8 μl of 8.8% sucrose or 20 mM histidine (pH 5.5), or both.
An experiment to determine whether the pH of formulated NX001 affected bioactivity was performed. In this experiment, NX001 (lot PPLWGF0801) was used as a positive control and was dissolved in water to […], diluted 1/160 with water to 0.125 mg/mL, and 8 μL was added to assay plates to a final concentration of 0.2 μg/mL. (see FIG. 4, bar 1).
NX001 (lot PPLWGF0801) was dissolved to 20 mg/mL in either water or PBS, diluted to 0.125 mg/mL in water or PBS as specified, and 8 μL was then added to assay plates to a final concentration of […].
To insure that formulation of NX001 yielded a solution for injection that was as physiological as possible, the formulation of NX001 was adjusted to provide a neutral, iso-osmotic preparation. The adjusted formulation contains 20 mg/mL NX001, 20 mM histidine, 200 mM sucrose at a pH of 7.25, or 80 mg/mL NX001, 20 mM histidine, 15 mM sucrose, pH 7.25. Vials of formulated and lyophilized NX001 at either 80 mg/mL or 20 mg/mL were reconstituted with 1 mL water and diluted to […] before bioassay.

[2] = Stability of neutral lyophilized NX001 formulation, 12 months storage; type: physicochemical
Description: The stability of NX001 formulations was also evaluated. The stability of a lot of NX001 was monitored for 12 months at storage temperatures of 5° C. and 25° C. Appearance of lyophilized cake, reconstitution time, appearance of the reconstituted solution, pH, identity of the peptide, potency and purity of the peptide, and residual moisture were evaluated.
The evaluated parameters of neutral formulations of NX001 were not changed following 12 months storage at temperatures of 5° C. and 25° C.

[3] = pH of histidine/sucrose solutions after addition of NX001; type: physicochemical; conditions: 20 mM histidine
Description: Next, 20 mM histidine, containing 8.8% sucrose was prepared and the pH was adjusted to 5.5 with HCl. Similarly, additional solutions of 20 mM histidine containing 8.8% sucrose were prepared and the pH was adjusted to 7.5 and 9.0. These solutions were diluted 1/160 and 8 μL aliquots added to plates of BSC-1 cells. As shown in FIG. 4 (bars 2, 3, 4), the solutions were not mitogenic themselves. NX001 was dissolved in each of solution to 0.125 mg/mL.

[4] = 5° C., After 12 months of storage
[5] = 25° C., After 12 months of storage

Compound: N[C@@H](Cc1c[nH]cn1)C(=O)O [histidine]
- mitogenic activity of excipient without NX001 [1]: did not exhibit mitogenic activity

Compound: OC[C@H]1O[C@@](CO)(O[C@H]2O[C@H](CO)[C@@H](O)[C@H](O)[C@H]2O)[C@@H](O)[C@@H]1O [sucrose]
- mitogenic activity of excipient without NX001 [1]: did not exhibit mitogenic activity

Compound: gly-tyr-glu-ser-pro-ala-his-gly-tyr-gln-ala-pro-asn-gln (GYESPAHGYQAPNQ) [Scrambled NX001 peptide, 14-amino acid peptide including the same amino acids as NX001, but in scrambled order, reference compound]
- promotion of cell growth ([1]; FIG. 6 closed squares): did not promote cell growth

- Cake appearance [2, 4]: White cake
- Potency (% of NX001 recovered in main peak compared to stated vial concentration) [2, 4]: 99.6%
- Purity [2, 4]: 98.8%
- Reconstituted appearance [2, 4]: Clear, colorless
- Reconstitution time [2, 4]: 64 s
- Residual moisture [2, 4]: 0.80%
- Total % impurities [2, 4]: 1.2%
- pH [2, 4]: 7.2
- Cake appearance ([2]; 5° C., Initial): White cake
- Potency (% of NX001 recovered in main peak compared to stated vial concentration) ([2]; 5° C., Initial): 102%
- Purity ([2]; 5° C., Initial): 98.8%
- Reconstituted appearance ([2]; 5° C., Initial): Clear, colorless
- Reconstitution time ([2]; 5° C., Initial): 45 s
- Residual moisture ([2]; 5° C., Initial): 0.71%
- Total % impurities ([2]; 5° C., Initial): 1.2%
- pH ([2]; 5° C., Initial): 7.2
- Cake appearance [2, 5]: White cake
- Potency (% of NX001 recovered in main peak compared to stated vial concentration) [2, 5]: 97.9%
- Purity [2, 5]: 98.4%
- Reconstituted appearance [2, 5]: Clear, colorless
- Reconstitution time [2, 5]: 72 s
- Residual moisture [2, 5]: 1.05%
- Total % impurities [2, 5]: 1.6%
- pH [2, 5]: 7.3
- Cake appearance ([2]; 25° C., Initial): White cake
- Potency (% of NX001 recovered in main peak compared to stated vial concentration) ([2]; 25° C., Initial): 102%
- Purity ([2]; 25° C., Initial): 98.8%
- Reconstituted appearance ([2]; 25° C., Initial): Clear, colorless
- Reconstitution time ([2]; 25° C., Initial): 45 s
- Residual moisture ([2]; 25° C., Initial): 0.71%
- Total % impurities ([2]; 25° C., Initial): 1.2%
- pH ([2]; 25° C., Initial): 7.2
- pH of solution after dissolving NX001 ([3]; 8.8% sucrose adjusted to pH 5.5 before NX001): < 5.0
- pH of solution after dissolving NX001 ([3]; 8.8% sucrose adjusted to pH 7.5 before NX001): ~5.5
- pH of solution after dissolving NX001 ([3]; 8.8% sucrose adjusted to pH 9.0 before NX001): ~6.5
Compound: AQPYPQGNHEASYG [NX001, growth factor peptide designated NX001; PPL-WGF codes are lots of it]
- cell growth ([1]; NX001 0.2 μg/mL added separately from histidine/sucrose solutions of pH 5.5, 7.5, 9.0, FIG. 4 bars 8, 9, 10): increased cell growth to the same extent as the positive control alone
- growth-promoting activity ([1]; NX001 0.2 μg/ml in the presence of 20 mM histidine (pH 5.5) alone, FIG. 3B): abolished
- increase in cell number ([1]; NX001 0.2 μg/ml in the presence of 8.8% sucrose, FIG. 3B): 23%
- growth-promoting activity ([1]; NX001 0.2 μg/ml in the presence of histidine plus sucrose, FIG. 3B): abolished
- increase in cell number ([1]; NX001 alone, 0.2 μg/ml, FIG. 3B): 36%
- increase in growth of BSC-1 cells ([1]; NX001 dissolved and diluted in water, 0.125 μg/mL, FIG. 5 bar 3): 24%
- mitogenicity ([1]; NX001 dissolved in 20 mM histidine, 8.8% sucrose, resulting pH <5.0, ~5.5, ~6.5, not neutralized, FIG. 4 bars 5, 6, 7): not mitogenic
- increase in cell number ([1]; NX001 dissolved in PBS and diluted in water, 0.125 μg/mL, FIG. 5 bar 4): increased cell number by the same amount
- mitogenic activity ([1]; NX001 dissolved in histidine/sucrose (final pH 5.5), diluted in water, FIG. 5 bar 5): inactive
- increase in cell number ([1]; NX001 dissolved in histidine/sucrose and diluted in PBS (pH 7.25), FIG. 5 bar 7): > 24%
- mitogenic activity ([1]; NX001 dissolved in histidine/sucrose, neutralized with NaOH to pH 7.5, diluted in water, FIG. 5 bar 6): active
- mitogenicity ([1]; NX001 in 20 mM histidine, 8.8% sucrose neutralized with NaOH to pH 7.5 before dilution in water, FIG. 4 bars 11, 12, 13): mitogenic to the same extent as the positive control
- mitogenicity ([1]; formulated at 20 mg/mL in 20 mM histidine, 254 mM sucrose, pH 6.5, lyophilized, reconstituted with water, 0.05 to 0.4 μg/mL, FIG. 2): not mitogenic
- mitogenic activity ([1]; lot PPL-WGF0501A dissolved in 20 mM histidine, 200 mM sucrose, pH 7.25 immediately before assay, FIG. 6 open circles): active
- increase in cell number ([1]; lot PPL-WGF0501A dissolved in PBS immediately before assay, FIG. 6 closed circles): ~30%
- maximal mitogenic response ([1]; unformulated NX001 peptide lots, BSC-1 cells, FIG. 1): ~26%
